Source: patent publication US20150197492A1, “NOVEL INDENO[1,2-c]QUINOLIN-11-ONE DERIVATIVES, PREPARATION METHOD AND APPLICATION THEREOF” (National Defense Medical Center, priority 2014, published 2015)
Where two headings read alike, the source gives them in different places.

What was measured:
Assay type in all cases: cell-based
PC-3 = test: cells; details: PC-3 (Prostate Cancer), 10 μM, 48 hours
HL-60 (TB) = test: cells; details: HL-60 (TB) (Leukemia), 10 μM, 48 hours
HCT-15 = test: cells; details: HCT-15 (Colon Cancer), 10 μM, 48 hours
OVCAR-4 = test: cells; details: OVCAR-4 (Ovarian Cancer), 10 μM, 48 hours
SK-OV-3 = test: cells; details: SK-OV-3 (Ovarian Cancer), 10 μM, 48 hours
MOLT-4 = test: cells; details: MOLT-4 (Leukemia), 10 μM, 48 hours
[1] = tested on: 55 to 60 cancer cell lines; details: 10 μM; for inhibition effect in different cancer cell lines (summary of the NCI data, in words) / Mean (mean growth percentage of the tested cancer cell lines): 48 hours; for Mean (mean growth percentage of the tested cancer cell lines): all tested cell lines
SR = test: cells; details: SR (Leukemia), 10 μM, 48 hours
HCT-116 = test: cells; details: HCT-116 (Colon Cancer), 10 μM, 48 hours
U251 = test: cells; details: U251 (CNS Cancer), 10 μM, 48 hours
ACHN = test: cells; details: ACHN (Renal Cancer), 10 μM, 48 hours
A498 = test: cells; details: A498 (Renal Cancer), 10 μM, 48 hours
M14 = test: cells; details: M14 (Melanoma), 10 μM, 48 hours
NCI-H322M = test: cells; details: NCI-H322M (Non-Small Cell Lung Cancer), 10 μM, 48 hours
SW-620 = test: cells; details: SW-620 (Colon Cancer), 10 μM, 48 hours
IGROV1 = test: cells; details: IGROV1 (Ovarian Cancer), 10 μM, 48 hours
SK-MEL-28 = test: cells; details: SK-MEL-28 (Melanoma), 10 μM, 48 hours
human PC-3 cells = test: Sulforhodamine B (SRB) assay, cytotoxicity against PC-3 cells; details: for IC50: Homo sapiens
Description: Add 5% Fetal Bovine Serum (FBS) to 96-well plate and fix the cells with 10% TCA after 24 hours of incubation and add the compound (T0). Add DMSO and culture for another 48 hours and the cells are fixed in 0.4% (W/V), 10% TCA and SRB, and […]. Excess SRB is washed off by 1% acetic acid and cells stained with SRB are dissolved in 10 mmol/L Trizma base. The absorbance is measured at 515 nm. The treatment time is 0 (T0), control growth (C) and the increase of the compound (Tx) in the cells are shown below and are used to calculate the increase of the concentration of the compound in percentage. Growth inhibition (GI %) is calculated using the following formula 100−[(TX−T0)/(C−T0)]×100. The 50% growth inhibition concentration (IC50) is used to confirm the concentration of compound and thus results in 50% reduction of the treated cells which control the amount of total protein.
This part of experimental results are SRB assays measuring cytotoxicity of the 26 synthesized compounds against human PC-3 cells and are summarized in Table 1 and 2.

HT29 = test: cells; details: HT29 (Colon Cancer), 10 μM, 48 hours
SF-295 = test: cells; details: SF-295 (CNS Cancer), 10 μM, 48 hours
LOX IMVI = test: cells; details: LOX IMVI (Melanoma), 10 μM, 48 hours
OVCAR-3 = test: cells; details: OVCAR-3 (Ovarian Cancer), 10 μM, 48 hours
TK-10 = test: cells; details: TK-10 (Renal Cancer), 10 μM, 48 hours
SN12C = test: cells; details: SN12C (Renal Cancer), 10 μM, 48 hours
KM12 = test: cells; details: KM12 (Colon Cancer), 10 μM, 48 hours
NCI-H23 = test: cells; details: NCI-H23 (Non-Small Cell Lung Cancer), 10 μM, 48 hours
NCI-H460 = test: cells; details: NCI-H460 (Non-Small Cell Lung Cancer), 10 μM, 48 hours
K-562 = test: cells; details: K-562 (Leukemia), 10 μM, 48 hours
SF-268 = test: cells; details: SF-268 (CNS Cancer), 10 μM, 48 hours
BT-549 = test: cells; details: BT-549 (Breast Cancer), 10 μM, 48 hours
[2] = SRB assay, PC-3 cells, 48 hours, read-out: IC50

## CNc1nc2ccccc2c2c1-c1ccc(Cl)cc1C2=O [SJ-1, 9-Chloro-6-(methylamino)-11H-indeno[1,2-c]quinolin-11-one]
PC-3
  growth percentage: 89.44%
HL-60 (TB)
  growth percentage: 102.75%
HCT-15
  growth percentage: 66.20%
OVCAR-4
  growth percentage: 72.83%
SK-OV-3
  growth percentage: 92.62%
MOLT-4
  growth percentage: 93.26%
[1]
  inhibition effect in different cancer cell lines (summary of the NCI data, in words): more effective in breast cancer cell line
  Mean (mean growth percentage of the tested cancer cell lines): 84.15%
SR
  growth percentage: 91.67%
HCT-116
  growth percentage: 88.31%
U251
  growth percentage: 96.03%
ACHN
  growth percentage: 88.46%
A498
  growth percentage: 82.03%
M14
  growth percentage: 112.68%
NCI-H322M
  growth percentage: 80.85%
SW-620
  growth percentage: 96.25%
IGROV1
  growth percentage: 54.41%
SK-MEL-28
  growth percentage: 114.89%
Human PC-3 cells; SRB assay, PC-3 cells
  Toxicity (%): 52.8%
Human PC-3 cells; SRB assay, PC-3 cells, 10 μM
  GI % (10 μM): 100%
HT29
  growth percentage: 99.44%
SF-295
  growth percentage: 95.71%
LOX IMVI
  growth percentage: 93.40%
OVCAR-3
  growth percentage: 84.91%
TK-10
  growth percentage: 65.31%
SN12C
  growth percentage: 94.82%
KM12
  growth percentage: 66.82%
NCI-H23
  growth percentage: 86.83%
NCI-H460
  growth percentage: 84.38%
K-562
  growth percentage: 90.99%
SF-268
  growth percentage: 97.27%
BT-549
  growth percentage: 101.88%

## CN(C)c1nc2ccccc2c2c1-c1ccc(Cl)cc1C2=O [SJ-2, 9-Chloro-6-(dimethylamino)-11H-indeno[1,2-c]quinolin-11-one]
PC-3
  growth percentage: 82.55%
HL-60 (TB)
  growth percentage: 95.49%
HCT-15
  growth percentage: 80.49%
OVCAR-4
  growth percentage: 84.28%
SK-OV-3
  growth percentage: 99.12%
MOLT-4
  growth percentage: 88.92%
[1]
  inhibition effect in different cancer cell lines (summary of the NCI data, in words): more effective in breast cancer cell line
  Mean (mean growth percentage of the tested cancer cell lines): 87.15%
SR
  growth percentage: 86.12%
HCT-116
  growth percentage: 98.57%
U251
  growth percentage: 98.98%
ACHN
  growth percentage: 87.55%
A498
  growth percentage: 96.00%
M14
  growth percentage: 113.63%
NCI-H322M
  growth percentage: 78.83%
SW-620
  growth percentage: 96.35%
IGROV1
  growth percentage: 83.38%
SK-MEL-28
  growth percentage: 113.43%
Human PC-3 cells; PC-3, 48 h
  IC50: 4.34 µM
HT29
  growth percentage: 94.89%
SF-295
  growth percentage: 93.22%
LOX IMVI
  growth percentage: 85.45%
OVCAR-3
  growth percentage: 103.48%
TK-10
  growth percentage: 91.84%
SN12C
  growth percentage: 95.38%
KM12
  growth percentage: 94.44%
NCI-H23
  growth percentage: 82.62%
NCI-H460
  growth percentage: 94.17%
K-562
  growth percentage: 88.81%
SF-268
  growth percentage: 100.26%
BT-549
  growth percentage: 102.55%

## O=C1c2cc(Cl)ccc2-c2c(SCCO)nc3ccccc3c21 [SJ-25, 6-(2-Hydroxyethylthio)-9-chloro-11H-indeno[1,2-c]quinolin-11-one]
PC-3
  growth percentage: 58.35%
HL-60 (TB)
  growth percentage: 91.75%
HCT-15
  growth percentage: 80.10%
OVCAR-4
  growth percentage: 73.19%
MOLT-4
  growth percentage: 59.49%
[1]
  Mean (mean growth percentage of the tested cancer cell lines): 79.52%
SR
  growth percentage: 61.70%
HCT-116
  growth percentage: 77.94%
U251
  growth percentage: 78.04%
ACHN
  growth percentage: 88.12%
M14
  growth percentage: 98.89%
NCI-H322M
  growth percentage: 73.47%
SW-620
  growth percentage: 86.99%
IGROV1
  growth percentage: 69.73%
SK-MEL-28
  growth percentage: 86.90%
Human PC-3 cells; [2]
  IC50: > 10 µM
HT29
  growth percentage: 84.03%
SF-295
  growth percentage: 73.28%
LOX IMVI
  growth percentage: 68.41%
OVCAR-3
  growth percentage: 89.42%
TK-10
  growth percentage: 99.82%
SN12C
  growth percentage: 84.58%
KM12
  growth percentage: 84.62%
NCI-H23
  growth percentage: 66.22%
NCI-H460
  growth percentage: 79.22%
K-562
  growth percentage: 63.81%
SF-268
  growth percentage: 96.53%
BT-549
  growth percentage: 92.88%

## O=C1c2cc(Cl)ccc2-c2c(O)nc3ccccc3c21 [SJ-26, 6-Hydroxy-9-chloro-11H-indeno[1,2-c]quinolin-11-one]
PC-3
  growth percentage: 93.44%
HL-60 (TB)
  growth percentage: 102.31%
HCT-15
  growth percentage: 108.54%
OVCAR-4
  growth percentage: 80.74%
MOLT-4
  growth percentage: 95.10%
[1]
  Mean (mean growth percentage of the tested cancer cell lines): 96.60%
SR
  growth percentage: 77.02%
HCT-116
  growth percentage: 103.43%
U251
  growth percentage: 96.46%
ACHN
  growth percentage: 104.75%
M14
  growth percentage: 108.50%
NCI-H322M
  growth percentage: 90.72%
SW-620
  growth percentage: 95.26%
IGROV1
  growth percentage: 91.28%
SK-MEL-28
  growth percentage: 100.02%
HT29
  growth percentage: 102.38%
SF-295
  growth percentage: 92.48%
LOX IMVI
  growth percentage: 86.91%
OVCAR-3
  growth percentage: 117.80%
TK-10
  growth percentage: 126.63%
SN12C
  growth percentage: 96.69%
KM12
  growth percentage: 102.73%
NCI-H23
  growth percentage: 81.56%
NCI-H460
  growth percentage: 83.32%
K-562
  growth percentage: 97.48%
SF-268
  growth percentage: 106.64%
BT-549
  growth percentage: 120.08%

## O=C1c2cc(Cl)ccc2-c2c(Cl)nc3ccccc3c21 [TC-XCl-1, 6,9-Dichloro-11H-indeno[1,2-c]quinolin-11-one]
PC-3
  growth percentage: 92.73%
HL-60 (TB)
  growth percentage: 102.00%
HCT-15
  growth percentage: 114.88%
OVCAR-4
  growth percentage: 94.13%
MOLT-4
  growth percentage: 70.83%
[1]
  Mean (mean growth percentage of the tested cancer cell lines): 98.17%
[1]; including leukemia and breast cancer cells
  number of cancer cell lines whose growth is inhibited: 9
SR
  growth percentage: 65.85%
HCT-116
  growth percentage: 105.87%
U251
  growth percentage: 100.63%
ACHN
  growth percentage: 111.67%
M14
  growth percentage: 109.79%
NCI-H322M
  growth percentage: 95.38%
SW-620
  growth percentage: 98.29%
IGROV1
  growth percentage: 92.82%
SK-MEL-28
  growth percentage: 90.08%
Human PC-3 cells; [2]
  IC50: > 15 µM
HT29
  growth percentage: 104.27%
SF-295
  growth percentage: 92.80%
LOX IMVI
  growth percentage: 84.23%
OVCAR-3
  growth percentage: 119.93%
TK-10
  growth percentage: 138.45%
SN12C
  growth percentage: 88.03%
KM12
  growth percentage: 111.92%
NCI-H23
  growth percentage: 79.30%
NCI-H460
  growth percentage: 98.68%
K-562
  growth percentage: 102.16%
SF-268
  growth percentage: 117.27%
BT-549
  growth percentage: 119.62%
